Test results taken from patent US20130143835A1, “HCV Polymerase Inhibitors” (MEDIVIR AB, priority 2011, published 2013).

Assays:
[1] = test system: HCV type 1b replicon in Huh-7 luc/neo (Huh-Luc) cells; test: HCV replicon assay (Huh-Luc cells, luciferase read-out); assay type: cell-based; settings: inhibition of HCV replication, three days incubation, luciferase activity
Description: The in vitro antiviral activity against HCV of the compounds of formula I can be tested in a cellular HCV replicon system based on Lohmann et al. (1999) Science 285:110-113, with the further modifications described by Krieger et al. (2001) Journal of Virology 75: 4614-4624 (incorporated herein by reference), which is further exemplified in the examples section. This model, while not a complete infection model for HCV, is widely accepted as the most robust and efficient model of autonomous HCV RNA replication currently available. It will be appreciated that it is important to distinguish between compounds that specifically interfere with HCV functions from those that exert cytotoxic or cytostatic effects in the HCV replicon model, and as a consequence cause a decrease in HCV RNA or linked reporter enzyme concentration. Assays are known in the field for the evaluation of cellular cytotoxicity based for example on the activity of mitochondrial enzymes using fluorogenic redox dyes such as resazurin. Furthermore, cellular counter screens exist for the evaluation of non-selective inhibition of linked reporter gene activity, such as firefly luciferase. Appropriate cell types can be equipped by stable transfection with a luciferase reporter gene whose expression is dependent on a constitutively active gene promoter, and such cells can be used as a counter-screen to eliminate non-selective inhibitors.
The compounds of formula I may be examined for activity in the inhibition of HCV RNA replication in a cellular assay aimed at identifying compounds that inhibit a HCV functional cellular replicating cell line, also known as HCV replicons. A suitable cellular assay is based on a bicistronic expression construct, as described by Lohmann et al. (1999), Science vol. 285 pp. 110-113 with modifications described by Krieger et al. (2001), Journal of Virology 75: 4614-4624, in a multi-target screening strategy.
The assay utilizes the stably transfected cell line Huh-7 luc/neo (hereafter referred to as Huh-Luc). This cell line harbors an RNA encoding a bicistronic expression construct comprising the wild type NS3-NS5B regions of HCV type 1b translated from an Internal Ribosome Entry Site (IRES) from encephalomyocarditis virus (EMCV), preceded by a reporter portion (FfL-luciferase), and a selectable marker portion (neo^R, neomycine phosphotransferase). The construct is bordered by 5′ and 3′ NTRs (non-translated regions) from HCV type 1b. Continued culture of the replicon cells in the presence of G418 (neo^R) is dependent on the replication of the HCV RNA. The stably transfected replicon cells that express HCV RNA, which replicates autonomously and to high levels, encoding inter alia luciferase, are used for screening the antiviral compounds.
The replicon cells are plated in 384 well plates in the presence of the test and control compounds which are added in various concentrations. Following an incubation of three days, HCV replication is measured by assaying luciferase activity (using standard luciferase assay substrates and reagents and a Perkin Elmer ViewLux™ ultraHTS microplate imager). Replicon cells in the control cultures have high luciferase expression in the absence of any inhibitor. The inhibitory activity of a compound on luciferase activity is monitored on the Huh-Luc cells, enabling a dose-response curve for each test compound. EC50 values are then calculated, which value represents the amount of the compound required to decrease the level of detected luciferase activity by 50%, or more specifically, the ability of the genetically linked HCV replicon RNA to replicate.

[2] = target: T1, HCV NS5B-21 (Hepatitis C virus genotype 1b, UniProt Q9WMX2); test: HCV NS5B-21 enzyme assay (SPA, 3H-ATP incorporation); assay type: biochemical; settings: HCV NS5B-21 SPA enzyme assay, triphosphate tested
T1 construct: HCV NS5B-21 (21-aminoacid C-terminally truncated version); purchased Replizyme
Procedure: It is this triphosphate which is believed to be the antivirally active species. The enzyme assay described here example may be used to confirm that compounds of the invention are antivirally active as the 5′-triphosphate metabolite.
The enzyme assay measures the inhibitory effect of triphosphate compounds in an HCV NS5B-21 (21-aminoacid C-terminally truncated version) SPA assay (scintillation proximity assay). The assay is performed by evaluating the amount of radiolabelled ATP incorporated by HCV NS5B-21 into newly synthesized RNA using an heterogeneous biotinylated RNA template.
To determine IC50 values the compounds are tested at various concentrations in a final volume of 100 μl of reaction mixture. The reaction is stopped by addition of 0.5M EDTA solution. The samples are transferred into flashplates precoated with streptavidin. The incorporated radioactivity is quantified using a scintillation counter (Wallac Microbeta Trilux).
The assay should include enzyme controls (about four, containing 1 μl DMSO instead of inhibitor) and background control containing all ingredients except template.
Compounds are serially diluted in DMSO on a separate dilution plate to 100× the final desired assay concentrations. […]
Incubate the plate over night and read the flash plate in the Microbeta Trilux using the protocol Flash plates H3. […]
IC50 is determined using Graphpad Prism. […]

Row | SMILES | EC50 [1] [nM] | other results
1 | CC[C@@H](C)OC(=O)[C@H](C)NP(=O)(OC[C@H]1O[C@@H](n2ccc(=O)[nH]c2=O)[C@](C)(N)[C@@H]1O)Oc1ccccc1 (single isomer, unassigned) [Example 21B] | 740 | 
2 | CC[C@@H](C)OC(=O)[C@H](C)NP(=O)(OC[C@H]1O[C@@H](n2ccc(=O)[nH]c2=O)[C@](C)(N)[C@@H]1O)Oc1ccccc1 (single isomer, unassigned) [Example 22A] | 21000 | 
3 | CC[C@@H](C)OC(=O)[C@H](C)NP(=O)(OC[C@H]1O[C@@H](n2ccc(=O)[nH]c2=O)[C@](C)(N)[C@@H]1O)Oc1ccccc1 (single isomer, unassigned) [Example 22B] | 660 | 
4 | CCCOC(=O)[C@H](C)NP(=O)(OC[C@H]1O[C@@H](n2ccc(=O)[nH]c2=O)[C@](C)(N)[C@@H]1O)Oc1ccccc1 (single isomer, unassigned) [Example 24A] |  | EC50 ([1]; Hepatitis C virus, Huh-7, 72 h): 2900 nM
5 | CCCOC(=O)[C@H](C)NP(=O)(OC[C@H]1O[C@@H](n2ccc(=O)[nH]c2=O)[C@](C)(N)[C@@H]1O)Oc1ccccc1 (single isomer, unassigned) [Example 24B] | 1500 | 
6 | CCC[C@H](C)OC(=O)[C@@H](C)NP(=O)(OC[C@H]1O[C@@H](n2ccc(=O)[nH]c2=O)[C@](C)(N)[C@@H]1O)Oc1ccccc1 (single isomer, unassigned) [Example 25A] | 4700 | 
7 | CCC[C@H](C)OC(=O)[C@@H](C)NP(=O)(OC[C@H]1O[C@@H](n2ccc(=O)[nH]c2=O)[C@](C)(N)[C@@H]1O)Oc1ccccc1 (single isomer, unassigned) [Example 25B] | 380 | 
8 | C[C@H](NP(=O)(OC[C@H]1O[C@@H](n2ccc(=O)[nH]c2=O)[C@](C)(N)[C@@H]1O)Oc1ccccc1)C(=O)OCC1CC1 (single isomer, unassigned) [Example 26A] | 1700 | 
9 | C[C@H](NP(=O)(OC[C@H]1O[C@@H](n2ccc(=O)[nH]c2=O)[C@](C)(N)[C@@H]1O)Oc1ccccc1)C(=O)OCC1CC1 (single isomer, unassigned) [Example 26B] | 760 | 
10 | C[C@H](NP(=O)(OC[C@H]1O[C@@H](n2ccc(=O)[nH]c2=O)[C@](C)(N)[C@@H]1O)Oc1ccccc1)C(=O)OCC1CCCC1 (single isomer, unassigned) [Example 27A] | 2200 | 
11 | C[C@H](NP(=O)(OC[C@H]1O[C@@H](n2ccc(=O)[nH]c2=O)[C@](C)(N)[C@@H]1O)Oc1ccccc1)C(=O)OCC1CCCC1 (single isomer, unassigned) [Example 27B] | 380 | 
12 | CCC(CC)OC(=O)[C@H](C)NP(=O)(OC[C@H]1O[C@@H](n2ccc(=O)[nH]c2=O)[C@](C)(N)[C@@H]1O)Oc1ccccc1 (single isomer, unassigned) [Example 28A] | 34000 | 
13 | CCC(CC)OC(=O)[C@H](C)NP(=O)(OC[C@H]1O[C@@H](n2ccc(=O)[nH]c2=O)[C@](C)(N)[C@@H]1O)Oc1ccccc1 (single isomer, unassigned) [Example 28B] | 480 | 
14 | C[C@@]1(N)[C@H](O)[C@@H](CO)O[C@H]1n1ccc(=O)[nH]c1=O [Example 1, 1-((2R,3R,4S,5R)-3-amino-4-hydroxy-5-(hydroxymethyl)-3-methyltetrahydrofuran-2-yl)pyrimidine-2,4(1H,3H)-dione] |  | EC50 ([1]; Hepatitis C virus, Huh-7, 72 h): > 50000 nM
15 | CC(C)OC(=O)[C@H](C)NP(=O)(OC[C@H]1O[C@@H](n2ccc(=O)[nH]c2=O)[C@](C)(N)[C@@H]1O)Oc1ccccc1 (some centres unmarked) [Example 2] | 2000 | 
16 | C[C@@]1(N)[C@H](O)[C@@H](COP(=O)(O)OP(=O)(O)OP(=O)(O)O)O[C@H]1n1ccc(=O)[nH]c1=O [Example 3, potassium ((2R,3S,4R,5R)-4-amino-5-(2,4-dioxo-3,4-dihydropyrimidin-1(2H)-yl)-3-hydroxy-4-methyltetrahydrofuran-2-yl)methyl triphosphate] |  | IC50 [2]: 13000 nM
17 | C[C@@]1(N)[C@H](O)[C@@H](COP(=O)(O)O)O[C@H]1n1ccc(=O)[nH]c1=O [Example 4, ((2R,3S,4R,5R)-4-amino-5-(2,4-dioxo-3,4-dihydropyrimidin-1(2H)-yl)-3-hydroxy-4-methyltetrahydrofuran-2-yl)methyl dihydrogen Phosphate] | > 50000 | 
